Measured values taken from patent US20240299446A1 (priority 2023, published 2024).
Marks after values point to notes of the source that are not given here.

How the values were obtained:
[1] = tested on: ovariectomy (OVX) rats; test: Blood biochemical analysis in ovariectomized rats
Description: Blood samples were collected at 12 weeks post-surgery. Animals were deprived of food for 16 hours and then anesthetized prior to blood sampling (Zoletile 50, Virbac, Korea). 0.5 mL of blood was collected from the abdominal artery and stored at 4° C. in a refrigerator.
A portion of the blood was used for hematological experiments, and the remaining blood was centrifuged at 3,000 rpm for 10 minutes to obtain serum. The serum was used for blood biochemical experiments and bone metabolism markers 17β-estradiol, osteocalcin and CTx analysis.
The parameters measured for blood biochemical analysis (Ciba-Corning 644 Na/K/Cl Analyzer, Ciba-Corning, Medfield, USA) were as follows: alanine aminotransferase (ALT), aspartate aminotransferase (AST), alkaline phosphatase (ALP), blood urea nitrogen (BUN), glucose, triglycerides (TG), total cholesterol (TC), high-density lipoproteins (HDL), low-density lipoproteins (LDL), total proteins (TP), albumin, calcium and phosphorus.

[2] = tested on: ovariectomy (OVX) rats; test: Hematological analysis in ovariectomized rats; type: in vivo, Sprague-Dawley rats; conditions: blood at 12 weeks post-surgery; mean ± SD, 5 rats
Description: Blood samples were collected at 12 weeks post-surgery.
Hematological experiments were performed using T-540 Coulter Counter (Coulter Electronics Inc., Hialeah, USA) and ADVIA 120 Hematology System (Bayer Healthcare LLC, Tarrytown, USA). White blood cells (WBCs), differential leukocyte counts, hematocrit, red blood cells (RBCs), mean corpuscular volume (MCV), mean corpuscular hemoglobin (MCH), mean corpuscular hemoglobin concentration (MCHC), and platelet count were subjected to analysis, respectively.

[3] = tested on: human colo 205 rectal cancer cells; test: Rectal cancer animal experiment, Colo205 xenograft model; type: in vivo
Description: Using human colo 205 rectal cancer cells as xenograft model, clinical experiments were performed with adenocarcinoma nude mice for 28 days. In this regard, the experimental method and usage are shown in Table 8 (Protocol Design for the Colo205-e347 Study) and Table 9 (Final treatment regimen at completion of the study) below.

[4] = tested on: ovariectomy (OVX) rats; test: Blood markers  (17β-estradiol, osteocalcin, CTx) in ovariectomized rats; type: in vivo, Sprague-Dawley rats
Description: Osteocalcin levels were measured using a sandwich ELISA kit (Biomedical Technologies Inc., Stoughton, USA), while CTx levels were measured using a serum RatLaps ELISA kit (IDS Inc., Fountain Hills, USA).

[5] = tested on: ovariectomy (OVX) rats; test: Change in weight of organs in ovariectomized rats; type: in vivo, Sprague-Dawley rats; conditions: OVX rats, treatment for 12 weeks after ovariectomy; mean ± SD, 5 rats
Description: 12 week old female SPF Sprague-Dawley rats (body weight: 250 g; n=15) were purchased from the Korean Laboratory Animals Center (Eumseong, South Korea). Breeding conditions were as follows: temperature, 23+3° C.; relative humidity, 55+10%; lighting time, 12 hours (08:00-20:00); ventilation frequency, 10-20 changes/h; illumination, 150-300 lux. The temperature and humidity were measured using a hygrometer in units of time, and there were no variables that could affect the experimental results. The animals were fed normal rodent feed and purified water.
The experimental animals were randomly divided into three groups. After adaptation, bilateral laparotomy (sham) or bilateral ovariectomy (OVX) was performed on the rats.
Changes in the body weight and feeding and water intake were measured at a regular interval.

[6] = tested on: ovariectomy (OVX) rats; test: Blood markers  (17β-estradiol, osteocalcin, CTx) in ovariectomized rats; type: in vivo, Sprague-Dawley rats; remark: listed apart in the source
[7] = tested on: ovariectomy (OVX) rats; test: Femur bone mineral density (DEXA), breaking force and mineral content in ovariectomized rats; type: in vivo, Sprague-Dawley rats
Description: Using dual energy X-ray absorptionmetry (DEXA; Prodigy Advance, Donga imaging, Korea), the bone mineral density (BMD) of the femur was measured. Immediately after BMD measurement, the femur was subjected to mechanical test at room temperature using a material testing machine (MZ500D; Maruto, Tokyo, Japan). For stabilization, the mid-diaphysis of the thigh was placed on two supports at an interval of 4 mm on a test device. A three-point bending test was performed in front and rear directions at the midpoint between the two supports. Breaking force was measured using software (CTR win, Ver. 1.05) to measure bone strength. […] Then, the thigh was placed at 800° C. for 16 hours, and the weight of the ash was measured. […] Calcium and phosphorus contents were measured using an atomic absorption spectrophotometer (PerkinElmer; A Analyst 100 Spectrophotometer, Boston, USA).

[8] = serum at 12 weeks post-surgery, mean ± SD, 5 rats
[9] = OVX rats, increased after ovariectomy

Sigma Anti-bonding Molecule Calcium Carbonate [SAC, reference compound]
bone growth marker ALP ([1]; OVX rats, serum): recovered to a normal level | ALP [1, 8]: 108.2 ± 20.7 IU/l | Albumin [1, 8]: 2.7 ± 0.1 g/dL | BUN [1, 8]: 9.2 ± 2.4 mg/dL | GOT [1, 8]: 148.0 ± 30.4 IU/l | GPT [1, 8]: 22.4 ± 4.0 IU/l | Glucose [1, 8]: 112.4 ± 7.7 mg/dL | HDL [1, 8]: 23.8 ± 5.2 mg/dL | LDL-C [1, 8]: 8.0 ± 5.2 mg/dL | Phosphorus [1, 8]: 4.1 ± 0.6 mg/dL | TC [1, 8]: 73.0 ± 17.3 mg/dL | TG [1, 8]: 20.6 ± 7.7 mg/dL | TP [1, 8]: 4.7 ± 0.2 | calcium [1, 8]: 6.7 ± 0.4 mg/dL | Basophils [2]: 0.02 ± 0.04 9% | Eosinophils [2]: 5.04 ± 3.88% | Hematocrit [2]: 43.94 ± 2.18% | Lymphocytes [2]: 70.36 ± 8.78% | Mean corpuscular hemoglobin [2]: 30.50 ± 0.75 pg | Mean corpuscular hemoglobin concentration [2]: 57.14 ± 0.76 g/dL | Mean corpuscular volume [2]: 53.44 ± 1.24 fL | Monocytes [2]: 2.50 ± 1.44% | Neutrophils [2]: 21.21 ± 6.19% | Platelet [2]: 1297.0 ± 91.27 10^3/mm^3 | Red blood cell [2]: 8.23 ± 0.55 10^6/µL | White blood cell [2]: 4.84 ± 1.17 10^3/μl | Mean BW Nadir ([3]; lowest group mean body weight as % change from Day 1, — indicates no decrease in mean body weight was observed): −0.4% Day 2 | MTV (n) Day 28 ([3]; median tumor volume, 0.83 mg/kg po, Day 28): 896 (9) mm^3 | Deaths NTR ([3]; non-treatment-related deaths, 0.83 mg/kg po): 1 | Regressions CR ([3]; number of complete regressions, 0.83 mg/kg po): 0 | Regressions PR ([3]; number of partial regressions, 0.83 mg/kg po): 0 | % TGI ([3]; percent tumor growth inhibition compared to Group 1 (vehicle), Day 28, 0.83 mg/kg po): 4% | Deaths TR ([3]; treatment-related deaths, 0.83 mg/kg po): 0 | Regressions TFS ([3]; tumor free survivors at end of study, 0.83 mg/kg po): 0 | C-terminal telopeptide / CTx [4, 9]: quite reduced | osteocalcin [4, 9]: considerably reduced | C-terminal telopeptide ([4]; serum CTx, 12 weeks after ovariectomy, mean ± SD, 5 rats): 4.360 ± 0.495^a ng/ml | osteocalcin ([4]; serum, 12 weeks after ovariectomy, mean ± SD, 5 rats): 3.558 ± 0.154^ac ng/mL | Adrenal gland Left weight [5]: 0.0094 ± 0.0014 g | Adrenal gland Right weight [5]: 0.0094 ± 0.0014 g | Body weight [5]: 371.36 ± 9.97 g | Brain weight [5]: 0.5526 ± 0.02 | Femur Left weight [5]: 0.2935 ± 0.02 g | Femur Right weight [5]: 0.2902 ± 0.02 g | Kidney: Left weight [5]: 0.2687 ± 0.01 g | Kidney: Right weight [5]: 0.2626 ± 0.02 g | Liver weight [5]: 2.1820 ± 0.15 g | Pituitary weight [5]: 4.2 ± 1 mg | Spleen weight [5]: 0.1856 ± 0.02 g | Uterus weight [5]: 0.0444 ± 0.02 g | Vagina weight [5]: 0.0575 ± 0.02 g | blood 17β-estradiol reduction by ovariectomy ([6]; OVX rats): quite recovered | Estradiol ([6]; serum 17β-estradiol, 12 weeks after ovariectomy, mean ± SD, 5 rats): 4.217 ± 0.247^a pg/ml | calcium ([7]; femur ash, reduced by ovariectomy): not significantly different from the Sham group | BMD ([7]; femur, DEXA, treatment for 12 weeks after ovariectomy, mean ± SD, 5 rats): 0.228 ± 0.012 g/cm²
